Earlier results in patent US20180136238A1 (priority 2016, published 2018).
Where two headings read alike, the source gives them in different places.

What was measured:
[1] = in vivo
[2] = blood, equilibrium of bicarbonate complex with protein bound uranyl ions

[CH3][Hg][CH3] [dimethyl mercury]
LD50 dose [1]: 0.015 mg/kg

[Hg+2].[S-2] [mercuric sulfide]
LD50 dose [1]: ~100,000.0 mg/kg

[U] [uranium]
uranium in blood bicarbonate-formed [2]: 60%
uranium in blood protein-formed [2]: 40%
uranium in blood associated with red blood cells (other studies): 20%
uranium in blood present in the inorganic compartment of plasma (other studies): 74%
uranium in blood protein-formed (other studies): 32%

arsenic
LD50 dose [1]: 14 mg/kg
